What was measured:
PbmCherryLuci = assay: Prime/boost immunisation of C57BL/6 mice with CD8 depletion before mosquito bite challenge (FIG. 4); format: in vivo, Plasmodium berghei; settings: C57BL/6, prime/boost with 2 x 100 mg/kg P.O., 10 mosquito bites ten weeks after boost
Experimental: In addition to these protective antibody responses, the contribution of CD8 T-cells to the mechanism of immune protection was tested. Female C57BL/6 mice were immunized using a prime/boost immunisation regimen. The first immunisation was with 40,000 PbmCherryLuci salivary gland sporozoites i.v. followed by two doses of Example 1A at 100 mg/kg P.O. (given at 36 and 48 hours post infection). The second immunisation (boost) was eight weeks later, this time with 20,000 PbmCherryLuci sporozoites but with Example IA treatment as for the prime immunisation. Ten weeks after the boost immunisation (eighteen weeks after the prime immunisation) the mice were injected with 150 μg of a CD8 depleting antibody, or an isotype control non-depleting antibody the day before the mice were challenged with the bites of 10 PbmCherryLuci infected mosquitoes for 15 minutes. Giemsa stained thin blood smears were analysed until 30 days after challenge for the presence of parasites in the blood and mice were considered to be protected from infection if no blood parasites were observed within the 30 days post […].

PMX = PMX (Plasmodium falciparum, UniProt Q8IAS0); settings: P. falciparum parasites incubated with compound; SERA5 120 kDa, processed by SUB1
Chain of PMX (Q8IAS0 222-573): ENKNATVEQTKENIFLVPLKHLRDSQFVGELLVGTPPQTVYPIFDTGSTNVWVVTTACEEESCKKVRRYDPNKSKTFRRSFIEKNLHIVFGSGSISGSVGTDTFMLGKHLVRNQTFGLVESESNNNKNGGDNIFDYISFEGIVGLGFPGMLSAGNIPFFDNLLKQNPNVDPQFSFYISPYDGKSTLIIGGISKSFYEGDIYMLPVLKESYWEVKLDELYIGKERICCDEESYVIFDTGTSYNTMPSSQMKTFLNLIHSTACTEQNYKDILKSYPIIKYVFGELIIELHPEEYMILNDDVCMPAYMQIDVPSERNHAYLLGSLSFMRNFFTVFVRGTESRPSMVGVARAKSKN
Source text: SERA5 is a 120 kDa protein required for merozoite egress and is processed by subtilisin-like protease subtilisin 1 (SUB1) to release a soluble polypeptide of approximately 50 kDa (Pino, P., Caldelari, R., Mukherjee, B., Vahokoski, J., Klages, N., Maco, B., et al. (2017). A multistage antimalarial targets the plasmepsins IX and X essential for invasion and egress. Science 358, 522-528). […] SERA5 was included as a control in all subsequent experiments as a proxy for PMX-mediated activation of SUB1.

CCC1(CC)CC(=O)N(C2CCOc3ccc(C(=O)N[C@H]4CC(C)(C)Oc5ccccc54)cc32)C(=N)N1 (stereo partly drawn) [Example 1A, 4-(4,4-diethyl-2-imino-6-oxotetrahydropyrimidin-1(2H)-yl)-N—((S)-2,2-dimethylchroman-4-yl)chroman-6-carboxamide]
blood parasites after challenge (PbmCherryLuci; 150 μg CD8 depleting antibody): all had blood parasites 4 days after challenge | blood parasites after challenge (PbmCherryLuci; isotype control non-depleting antibody): negative for blood parasites throughout the 30-day observation period | SERA5 processing (PMX): accumulation of unprocessed SERA5 at 120 kDa
